# Columns and labels:
# Assay type in all cases: cell-based
# [1] = system: Klebsiella pneumoniae (Kpn, KPWT, ATCC #700603); experiment: MIC against Klebsiella pneumoniae reference strain KPWT; details: ATCC700603; Klebsiella pneumoniae KPWT, Table 2
# Source text: For evaluation of efficacy, we assembled panels of representative gram-negative pathogens, including Pseudomonas aeruginosa (Pae, PAWT, ATCC #27853), Klebsiella pneumoniae (Kpn, KPWT, ATCC #700603), Acinetobacter baumannii (Aba, ABWT, ATCC #BAA-747) and Escherichia coli (Eco, ECWT, ATCC #25922). […] Two strains (PAWT and ECWT) are reference strains cited within the Clinical and Laboratory Standards Institute (CLSI) Standards for susceptibility testing by Minimum Inhibitory Concentration (MIC) (SXPS2) and are well suited for quality control. ABWT and ECWT are widely susceptible to aminoglycoside antibiotics, whereas PAWT and KPWT harbor a single aminoglycoside-modifying enzyme (AGME) that targets 4,6-substituted-2-deoxystreptamine AGs. […]
# [2] = system: Pseudomonas aeruginosa (Pae, PAWT, ATCC #27853); experiment: MIC against Pseudomonas aeruginosa reference strain PAWT; details: ATCC27853; Pseudomonas aeruginosa wild type PAWT
# Source text: (§1) For evaluation of efficacy, we assembled panels of representative gram-negative pathogens, including Pseudomonas aeruginosa (Pae, PAWT, ATCC #27853), Klebsiella pneumoniae (Kpn, KPWT, ATCC #700603), Acinetobacter baumannii (Aba, ABWT, ATCC #BAA-747) and Escherichia coli (Eco, ECWT, ATCC #25922). These reference strains are useful indicator organisms to characterize compound activity against bacteria from a pathogenic genus in the absence of multiple resistance mechanisms. Two strains (PAWT and ECWT) are reference strains cited within the Clinical and Laboratory Standards Institute (CLSI) Standards for susceptibility testing by Minimum Inhibitory Concentration (MIC) (SXPS2) and are well suited for quality control. ABWT and ECWT are widely susceptible to aminoglycoside antibiotics, whereas PAWT and KPWT harbor a single aminoglycoside-modifying enzyme (AGME) that targets 4,6-substituted-2-deoxystreptamine AGs. […]
# [3] = system: Klebsiella pneumoniae screening panel KPWT, KR1, KR2, KR3; experiment: Klebsiella pneumoniae screening panel (KPWT, KR1, KR2, KR3), reference AGs
# Source text: Klebsiella pneumoniae (Kpn) and Escherichia coli (Eco) are gram-negative (like Pae), enteric pathogens with increasing clinical relevance. Many clinical isolates of Kpn and Eco harbor extended-spectrum beta-lactamases and are no longer sensitive to most beta-lactam antibiotics. We acquired clinical isolates of Klebsiella pneumoniae and Escherichia coli (Micromyx LLC, Kalamazoo, Mich.) and used this panel to test compounds for anti-enteric activity.
# [4] = system: Pseudomonas aeruginosa PR2 (clinical isolate with intermediate aminoglycoside resistance); experiment: MIC against Pseudomonas aeruginosa clinical isolate PR2; details: Pseudomonas aeruginosa resistant strain PR2
# Source text: (§2) Pseudomonas aeruginosa is a prominent nosocomial pathogen. In addition to intrinsic antibiotic resistance to several antibiotics, Pseudomonas has acquired multiple additional mechanisms of resistance. As a result, therapeutic options for the treatment of infections caused by Pseudomonas aeruginosa are limited. We acquired clinical isolates of Pseudomonas aeruginosa (Micromyx LLC, Kalamazoo, Mich.), and used this panel to test compounds for Pseudomonicidal activity. […] For each strain and antibiotic, the mechanism(s) of resistance was inferred from the resistance profile. The presence of specific AGMEs was confirmed by colony PCR.
# [5] = system: Acinetobacter baumannii (Aba, ABWT, ATCC #BAA-747); experiment: MIC against Acinetobacter baumannii reference strain ABWT; details: ATCCBAA747
# Source text: as §1
# [6] = system: Acinetobacter baumannii indicator strains (ABWT and clinical isolates); experiment: Acinetobacter baumannii indicator strain panel, reference AGs; details: read-out: activity (MIC) against 3 of the 4 indicator strains
# Source text: Acinetobacter baumannii is another clinically important and very challenging gram negative pathogen. Members of the Acinetobacter genus, including baumannii, have a remarkable ability to upregulate and acquire resistance determinants. Coupled with its ability to survive for prolonged periods in a hospital environment, A. baumannii is an emerging threat for healthcare institutions globally. We acquired clinical isolates of Acinetobacter baumannii and used this panel to test compounds for anti-Acinetobacter activity. We first tested reference AGs against our panel of Aba strains.
# [7] = system: Pseudomonas aeruginosa PR1 (clinical isolate with intermediate aminoglycoside resistance); experiment: MIC against Pseudomonas aeruginosa clinical isolate PR1; details: Pseudomonas aeruginosa resistant strain PR1
# Source text: as §2
# [8] = system: Pseudomonas aeruginosa PR3 (high-level, efflux-mediated, pan-aminoglycoside resistance); experiment: MIC against Pseudomonas aeruginosa clinical isolate PR3; details: Pseudomonas aeruginosa, read-out: MIC PR3
# Source text: as §2
# [9] = system: Escherichia coli (Eco, ECWT, ATCC #25922); experiment: MIC against Escherichia coli reference strain ECWT; details: ATCC25922
# Source text: For evaluation of efficacy, we assembled panels of representative gram-negative pathogens, including Pseudomonas aeruginosa (Pae, PAWT, ATCC #27853), Klebsiella pneumoniae (Kpn, KPWT, ATCC #700603), Acinetobacter baumannii (Aba, ABWT, ATCC #BAA-747) and Escherichia coli (Eco, ECWT, ATCC #25922). These reference strains are useful indicator organisms to characterize compound activity against bacteria from a pathogenic genus in the absence of multiple resistance mechanisms. Two strains (PAWT and ECWT) are reference strains cited within the Clinical and Laboratory Standards Institute (CLSI) Standards for susceptibility testing by Minimum Inhibitory Concentration (MIC) (SXPS2) and are well suited for quality control. ABWT and ECWT are widely susceptible to aminoglycoside antibiotics, whereas PAWT and KPWT harbor a single aminoglycoside-modifying enzyme (AGME) that targets 4,6-substituted-2-deoxystreptamine AGs.
smiles,measurement,setting,value
NCC[C@H](O)C(=O)N[C@@H]1C[C@H](N)[C@@H](O[C@H]2O[C@H](CN)CC[C@H]2N)[C@H](O)[C@H]1O[C@H]1O[C@H](CO)[C@@H](O)[C@H](N)[C@H]1O [arbekacin],MIC,[1],0.25 to 0.5 µg/mL
same,MIC,[2],0.5 µg/mL
same,potency against Klebsiella pneumoniae test panel,[3],potency against 3 of 4 strains tested
same,MIC,[4],8 to 16 µg/mL
same,MIC,[5],0.5 µg/mL
same,MIC,[6],≤ 8 µg/mL
same,MIC,[7],8 µg/mL
same,MIC,[8],16 µg/mL
same,MIC,[9],1 µg/mL
